Experiment [1] concerns the target T1, JAK2 (Homo sapiens, UniProt O60674).
T1 construct: host or cells: baculovirus expression system
Nature of the experiment: Recombinant Human JAK2 Kinase Assay (TRF). Type of experiment: biochemical. The conditions noted are these: JAK2 kinase inhibition, 0.2 μM ATP; read-out: JAK2 Potency. The method, boiled down:
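TRF read-out: Eu-N1 PY100 anti-phosphotyrosine antibody detects product. Enzyme is baculovirus-expressed JAK2 at 15 ng/ml; substrate is a biotinyl 15-mer peptide bound to Neutravidin-coated wells. Buffer 20 mM HEPES pH 7.2, 0.2 μM ATP, 1 mM MnCl2, 0.1% BSA, 2.5% DMSO final; 20 min, RT.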

In experiment [2] the target is T2, ALK (Homo sapiens, UniProt Q9UM73).
T2 construct: host or cells: baculovirus expression system
Nature of the experiment: ALK Kinase Assay (ELISA/TRF, PLC-γ substrate). Format: biochemical. The conditions noted are these: ALK kinase inhibition, 1 μM ATP; read-out: ALK Potency. The method, boiled down:
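PLC-γ substrate coated at 10 μg/mL in TBS; reaction started with 30 ng/ml ALK, run 15 min at 37° C. Phosphoproduct detected by TRF with Eu-N1-labeled PT66 anti-phosphotyrosine antibody. IC50 from sigmoidal variable-slope fit of percent inhibition versus log concentration.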
Background: An ELISA detects its analyte on a solid surface through an enzyme-linked reagent.

T2 sequence (Q9UM73 19-1620): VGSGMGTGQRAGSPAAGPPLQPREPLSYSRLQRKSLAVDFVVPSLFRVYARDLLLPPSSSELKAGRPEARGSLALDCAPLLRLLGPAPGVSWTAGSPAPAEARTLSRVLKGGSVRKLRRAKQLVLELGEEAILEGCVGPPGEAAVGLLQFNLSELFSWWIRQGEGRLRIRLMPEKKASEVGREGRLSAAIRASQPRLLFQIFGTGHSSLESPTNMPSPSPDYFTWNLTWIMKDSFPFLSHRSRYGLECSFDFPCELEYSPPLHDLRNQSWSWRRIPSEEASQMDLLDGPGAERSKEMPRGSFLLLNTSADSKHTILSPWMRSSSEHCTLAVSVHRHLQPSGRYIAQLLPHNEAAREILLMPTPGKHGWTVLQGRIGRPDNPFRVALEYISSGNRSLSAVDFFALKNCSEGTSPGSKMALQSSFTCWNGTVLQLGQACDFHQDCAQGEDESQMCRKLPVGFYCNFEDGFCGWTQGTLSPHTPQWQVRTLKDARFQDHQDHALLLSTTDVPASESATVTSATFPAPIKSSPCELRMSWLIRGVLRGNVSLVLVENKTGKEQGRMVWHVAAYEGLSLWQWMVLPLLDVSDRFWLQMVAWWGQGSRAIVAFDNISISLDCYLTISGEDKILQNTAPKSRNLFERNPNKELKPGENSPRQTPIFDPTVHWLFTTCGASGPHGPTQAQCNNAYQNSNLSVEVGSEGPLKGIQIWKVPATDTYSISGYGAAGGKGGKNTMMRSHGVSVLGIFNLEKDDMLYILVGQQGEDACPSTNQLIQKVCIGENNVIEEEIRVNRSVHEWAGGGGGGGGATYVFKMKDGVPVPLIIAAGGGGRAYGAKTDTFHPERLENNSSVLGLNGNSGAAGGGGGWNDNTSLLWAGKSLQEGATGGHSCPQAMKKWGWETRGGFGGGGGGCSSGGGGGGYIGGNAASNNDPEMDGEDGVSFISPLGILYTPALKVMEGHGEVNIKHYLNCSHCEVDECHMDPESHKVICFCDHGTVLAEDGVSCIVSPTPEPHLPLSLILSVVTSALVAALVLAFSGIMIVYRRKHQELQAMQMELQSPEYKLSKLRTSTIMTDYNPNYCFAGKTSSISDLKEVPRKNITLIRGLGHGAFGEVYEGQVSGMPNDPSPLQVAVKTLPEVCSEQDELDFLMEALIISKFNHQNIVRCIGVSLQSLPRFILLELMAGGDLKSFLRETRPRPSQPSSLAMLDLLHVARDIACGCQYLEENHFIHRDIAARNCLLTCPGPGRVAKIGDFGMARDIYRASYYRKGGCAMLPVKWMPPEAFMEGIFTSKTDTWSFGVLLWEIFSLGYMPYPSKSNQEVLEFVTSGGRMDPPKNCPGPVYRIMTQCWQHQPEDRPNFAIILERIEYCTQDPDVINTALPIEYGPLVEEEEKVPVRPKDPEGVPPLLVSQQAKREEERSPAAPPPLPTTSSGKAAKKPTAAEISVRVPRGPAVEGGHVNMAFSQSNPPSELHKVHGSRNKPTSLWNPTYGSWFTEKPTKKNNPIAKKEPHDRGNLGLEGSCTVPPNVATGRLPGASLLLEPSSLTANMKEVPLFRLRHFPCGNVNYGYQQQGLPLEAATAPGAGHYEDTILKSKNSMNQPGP
T1 sequence (O60674 whole entry): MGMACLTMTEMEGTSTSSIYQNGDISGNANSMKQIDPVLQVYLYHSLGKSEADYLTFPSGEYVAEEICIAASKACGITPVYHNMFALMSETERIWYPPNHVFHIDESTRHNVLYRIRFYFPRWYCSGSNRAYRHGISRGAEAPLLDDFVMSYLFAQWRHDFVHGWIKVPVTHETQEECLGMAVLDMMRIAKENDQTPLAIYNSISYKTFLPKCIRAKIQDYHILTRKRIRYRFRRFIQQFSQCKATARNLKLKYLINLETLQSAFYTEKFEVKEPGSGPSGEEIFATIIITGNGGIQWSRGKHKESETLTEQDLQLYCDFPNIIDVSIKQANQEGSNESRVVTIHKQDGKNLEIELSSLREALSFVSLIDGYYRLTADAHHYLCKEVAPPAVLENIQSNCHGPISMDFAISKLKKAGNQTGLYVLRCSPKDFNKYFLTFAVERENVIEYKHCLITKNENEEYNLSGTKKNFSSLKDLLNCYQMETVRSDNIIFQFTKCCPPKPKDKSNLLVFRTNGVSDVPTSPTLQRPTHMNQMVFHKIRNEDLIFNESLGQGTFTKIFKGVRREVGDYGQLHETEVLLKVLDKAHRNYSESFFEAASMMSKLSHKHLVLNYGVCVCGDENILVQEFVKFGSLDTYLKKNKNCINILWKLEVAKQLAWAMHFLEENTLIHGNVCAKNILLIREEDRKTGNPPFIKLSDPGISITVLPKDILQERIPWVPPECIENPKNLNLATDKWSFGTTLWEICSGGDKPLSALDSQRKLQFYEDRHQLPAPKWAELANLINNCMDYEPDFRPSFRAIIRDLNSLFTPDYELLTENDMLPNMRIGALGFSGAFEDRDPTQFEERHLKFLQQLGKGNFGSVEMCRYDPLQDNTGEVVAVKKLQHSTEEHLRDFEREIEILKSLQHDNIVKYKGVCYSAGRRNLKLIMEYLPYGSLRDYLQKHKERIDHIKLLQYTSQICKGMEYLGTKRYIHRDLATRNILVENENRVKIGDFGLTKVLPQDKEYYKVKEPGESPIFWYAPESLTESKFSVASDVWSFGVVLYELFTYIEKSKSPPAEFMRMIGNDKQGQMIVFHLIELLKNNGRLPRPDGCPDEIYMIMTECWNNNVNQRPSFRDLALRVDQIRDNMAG

`COc1cc(C2CCN(CC(=O)O)CC2)ccc1Nc1ncc2ccc(-c3ccccc3OC)n2n1` [Example 1278, (4-{3-Methoxy-4-[7-(2-methoxy-phenyl)-pyrrolo[2,1-f][1,2,4]triazin-2-ylamino]-phenyl}-piperidin-1-yl)-acetic acid]: the IC50 in experiment [1] was 0.1 to 1 µM; in experiment [2], < 0.1 µM.

In the case of `COc1cc(C2CCN(CC(=O)NC(CO)CO)CC2)ccc1Nc1ncc2ccc(-c3ccccc3OC)n2n1` [Example 1279, N-(2-Hydroxy-1-hydroxymethyl-ethyl)-2-(4-{3-methoxy-4-[7-(2-methoxy-phenyl)-pyrrolo[2,1-f][1,2,4]triazin-2-ylamino]-phenyl}-piperidin-1-yl)-acetamide], the figures for the IC50 in experiment [1] and in experiment [2] were 0.1 to 1 µM and < 0.1 µM, respectively.

Take `COc1cc(C2CCN(CC(N)=O)CC2)ccc1Nc1ncc2ccc(-c3ccc(C)cc3N(C)S(C)(=O)=O)n2n1` [Example 1280, 2-[4-(4-{7-[2-(Methanesulfonyl-methyl-amino)-4-methyl-phenyl]-pyrrolo[2,1-f][1,2,4]triazin-2-ylamino}-3-methoxy-phenyl)-piperidin-1-yl]-acetamide]: the IC50 in experiment [1] is 0.1 to 1 µM; in experiment [2] it was < 0.1 µM.

With `COc1cc(C2CCNCC2)ccc1Nc1ncc2ccc(-c3ccc(C)cc3N(C)S(C)(=O)=O)n2n1` [Example 1281, N-{2-[2-(2-Methoxy-4-piperidin-4-yl-phenylamino)-pyrrolo[2,1-f][1,2,4]triazin-7-yl]-5-methyl-phenyl}-N-methyl-methanesulfonamide], the IC50 in experiment [1] is 0.1 to 1 µM; in experiment [2] it was < 0.1 µM.

As for `COc1cc(C2CCN(CC(N)=O)CC2)ccc1Nc1ncc2ccc(-c3cc(F)ccc3N(C)S(C)(=O)=O)n2n1` [Example 1282, 2-[4-(4-{7-[5-Fluoro-2-(methanesulfonyl-methyl-amino)-phenyl]-pyrrolo[2,1-f][1,2,4]triazin-2-ylamino}-3-methoxy-phenyl)-piperidin-1-yl]-acetamide], the IC50 in experiment [1] was 1 to 10 µM; in experiment [2] it was < 0.1 µM.

As for `COc1ccc(N(C)S(C)(=O)=O)c(-c2ccc3cnc(Nc4ccc(C5CCN(CC(N)=O)CC5)cc4OC)nn23)c1` [Example 1283, 2-[4-(4-{7-[2-(Methanesulfonyl-methyl-amino)-5-methoxy-phenyl]-pyrrolo[2,1-f][1,2,4]triazin-2-ylamino}-3-methoxy-phenyl)-piperidin-1-yl]-acetamide], the results for the IC50 in experiment [1] and in experiment [2] were > 10 µM and 0.1 to 1 µM, respectively.

For `c1c[nH]c(-c2ccc3cnc(Nc4ccc(N5CCOCC5)cc4)nn23)c1` [Example 1291, (4-Morpholin-4-yl-phenyl)-[7-(1H-pyrrol-2-yl)-pyrrolo[2,1-f][1,2,4]triazin-2-yl]-amine], the IC50 in experiment [1] was < 0.1 µM; in experiment [2], 1 to 10 µM.

As to `CC(=O)Nc1cccc(Nc2ncc3ccc(-c4ccc[nH]4)n3n2)c1` [Example 1292, N-{3-[7-(1H-Pyrrol-2-yl)-pyrrolo[2,1-f][1,2,4]triazin-2-ylamino]-phenyl}-acetamide], the results for the IC50 in experiment [1] and in experiment [2] were < 0.1 µM and 1 to 10 µM, respectively.

Take `N#CCCn1cccc1-c1ccc2cnc(Nc3ccc(N4CCOCC4)cc3)nn12` [Example 1293, 3-{2-[2-(4-Morpholin-4-yl-phenylamino)-pyrrolo[2,1-f][1,2,4]triazin-7-yl]-pyrrol-1-yl}-propionitrile]: the IC50 in experiment [1] was < 0.1 µM; in experiment [2], 0.1 to 1 µM.

Consider `CC(=O)Nc1cccc(Nc2ncc3ccc(-c4cccn4CCC#N)n3n2)c1` [Example 1294, N-(3-{7-[1-(2-Cyano-ethyl)-1H-pyrrol-2-yl]-pyrrolo[2,1-f][1,2,4]triazin-2-ylamino}-phenyl)-acetamide], for which the values for the IC50 in experiment [1] and in experiment [2] were < 0.1 µM and 1 to 10 µM, respectively.

Consider `N#CCCn1cccc1-c1ccc2cnc(Nc3cccc(N4CCCC4=O)c3)nn12` [Example 1296, 3-(2-{2-[3-(2-oxo-pyrrolidin-1-yl)-phenylamino]-pyrrolo[2,1-f][1,2,4]triazin-7-yl}-pyrrol-1-yl)-propionitrile], for which the figures for the IC50 in experiment [1] and in experiment [2] were < 0.1 µM and 1 to 10 µM, respectively.

Consider `CC(C)(C)NS(=O)(=O)c1cccc(-c2ccc3cnc(Nc4ccc5nc(C(F)(F)F)[nH]c5c4)nn23)c1` [Example 1297, N-tert-Butyl-3-[2-(2-trifluoromethyl-3H-benzimidazol-5-ylamino)-pyrrolo[2,1-f][1,2,4]triazin-7-yl]-benzenesulfonamide], for which the IC50 was < 0.1 µM in experiment [1] and > 10 µM in experiment [2].

Take `CC(C)(C)NS(=O)(=O)c1cccc(-c2ccc3cnc(Nc4ccc5[nH]c(=O)[nH]c5c4)nn23)c1` [Example 1298, N-tert-Butyl-3-[2-(2-oxo-2,3-dihydro-1H-benzimidazol-5-ylamino)-pyrrolo[2,1-f][1,2,4]triazin-7-yl]-benzenesulfonamide]: the values for the IC50 in experiment [1] and in experiment [2] were < 0.1 µM and 0.1 to 1 µM, respectively.

For `CC(C)(C)NS(=O)(=O)c1cccc(-c2ccc3cnc(Nc4ccc5nc[nH]c5c4)nn23)c1` [Example 1299, 3-[2-(3H-Benzimidazol-5-ylamino)-pyrrolo[2,1-f][1,2,4]triazin-7-yl]-N-tert-butyl-benzenesulfonamide], the IC50 in experiment [1] is < 0.1 µM; in experiment [2], 0.1 to 1 µM.

Consider `Cn1cnc2ccc(Nc3ncc4ccc(-c5cccc(S(=O)(=O)NC(C)(C)C)c5)n4n3)cc21` [Example 1300, N-tert-Butyl-3-[2-(3-methyl-3H-benzimidazol-5-ylamino)-pyrrolo[2,1-f][1,2,4]triazin-7-yl]-benzenesulfonamide], for which the IC50 in experiment [1] was < 0.1 µM; in experiment [2] it was 0.1 to 1 µM.

With `Cn1cnc2ccc(Nc3ncc4ccc(-c5ccc(S(C)(=O)=O)cc5)n4n3)cc21` [Example 1301, [7-(4-Methanesulfonyl-phenyl)-pyrrolo[2,1-f][1,2,4]triazin-2-yl]-(3-methyl-3H-benzimidazol-5-yl)-amine], the IC50 in experiment [1] was < 0.1 µM; in experiment [2] it was 0.1 to 1 µM.

In the case of `CS(=O)(=O)c1ccc(-c2ccc3cnc(Nc4ccc5nc(C(F)(F)F)[nH]c5c4)nn23)cc1` [Example 1302, [7-(4-Methanesulfonyl-phenyl)-pyrrolo[2,1-f][1,2,4]triazin-2-yl]-(2-trifluoromethyl-3H-benzimidazol-5-yl)-amine], the IC50 in experiment [1] was < 0.1 µM; in experiment [2] it was > 10 µM.

Consider `CS(=O)(=O)c1ccc(-c2ccc3cnc(Nc4ccc5[nH]c(=O)[nH]c5c4)nn23)cc1` [Example 1303, 5-[7-(4-Methanesulfonyl-phenyl)-pyrrolo[2,1-f][1,2,4]triazin-2-ylamino]-1,3-dihydro-benzimidazol-2-one], for which the IC50 in experiment [1] was < 0.1 µM; in experiment [2], 1 to 10 µM.

For `CS(=O)(=O)c1ccc(-c2ccc3cnc(Nc4ccc5nc[nH]c5c4)nn23)cc1` [Example 1304, (3H-Benzimidazol-5-yl)-[7-(4-methanesulfonyl-phenyl)-pyrrolo[2,1-f][1,2,4]triazin-2-yl]-amine], the values for the IC50 in experiment [1] and in experiment [2] were < 0.1 µM and 0.1 to 1 µM, respectively.

As for `COc1ccccc1-c1ccc2cnc(Nc3ccc4nc(C(F)(F)F)[nH]c4c3)nn12` [Example 1305], the IC50 was < 0.1 µM in experiment [1] and 1 to 10 µM in experiment [2].

As for `COc1ccccc1-c1ccc2cnc(Nc3ccc4nc[nH]c4c3)nn12` [Example 1306, (3H-Benzimidazol-5-yl)-[7-(2-methoxy-phenyl)-pyrrolo[2,1-f][1,2,4]triazin-2-yl]-amine], the IC50 in experiment [1] was < 0.1 µM; in experiment [2], 0.1 to 1 µM.

For `COc1ccc(-c2ccc3cnc(Nc4ccc5ncn(C)c5c4)nn23)cn1` [Example 1307, [7-(6-Methoxy-pyridin-3-yl)-pyrrolo[2,1-f][1,2,4]triazin-2-yl]-(3-methyl-3H-benzimidazol-5-yl)-amine], the IC50 in experiment [1] is < 0.1 µM; in experiment [2], 1 to 10 µM.

`COc1ccc(-c2ccc3cnc(Nc4ccc5nc(C(F)(F)F)[nH]c5c4)nn23)cn1` [Example 1308, [7-(6-Methoxy-pyridin-3-yl)-pyrrolo[2,1-f][1,2,4]triazin-2-yl]-(2-trifluoromethyl-3H-benzimidazol-5-yl)-amine]: the IC50 was < 0.1 µM in experiment [1] and > 10 µM in experiment [2].

As to `COc1ccc(-c2ccc3cnc(Nc4ccc5[nH]c(=O)[nH]c5c4)nn23)cn1` [Example 1309, 5-[7-(6-Methoxy-pyridin-3-yl)-pyrrolo[2,1-f][1,2,4]triazin-2-ylamino]-1,3-dihydro-benzimidazol-2-one], the IC50 in experiment [1] is < 0.1 µM; in experiment [2] it was 1 to 10 µM.

For `Cn1cnc2ccc(Nc3ncc4ccc(-c5ccccc5NS(C)(=O)=O)n4n3)cc21` [Example 1310, N-{2-[2-(3-Methyl-3H-benzoimidazol-5-ylamino)-pyrrolo[2,1-f][1,2,4]triazin-7-yl]-phenyl}-methanesulfonamide], the IC50 was < 0.1 µM in experiment [1] and 0.1 to 1 µM in experiment [2].

For `CCS(=O)(=O)c1cccc(-c2ccc3cnc(Nc4ccc5nc[nH]c5c4)nn23)c1` [Example 1311, (3H-Benzimidazol-5-yl)-[7-(3-ethanesulfonyl-phenyl)-pyrrolo[2,1-f][1,2,4]triazin-2-yl]-amine], the figures for the IC50 in experiment [1] and in experiment [2] were < 0.1 µM and 1 to 10 µM, respectively.

In the case of `CCS(=O)(=O)c1cccc(-c2ccc3cnc(Nc4ccc5ncn(C)c5c4)nn23)c1` [Example 1312, [7-(3-Ethanesulfonyl-phenyl)-pyrrolo[2,1-f][1,2,4]triazin-2-yl]-(3-methyl-3H-benzimidazol-5-yl)-amine], the results for the IC50 in experiment [1] and in experiment [2] were < 0.1 µM and 1 to 10 µM, respectively.
